ChEMBL document CHEMBL3046967, “Synthesis and Fungicidal Activities of 2-(-Methoxyiminobenzyl)-1-methylimidazole Derivatives” (2001)

Tests used:
Type in all cases: functional
Botrytis cinerea [1] = assay: Antifungal activity against Botryotinia fuckeliana in cucumber at 7.8 ppm
Podosphaera fuliginea [2] = assay: Antifungal activity against Podosphaera fuliginea in cucumber at 2 ppm
[3] = test system: Pseudoperonospora cubensis; assay: Antifungal activity against Pseudoperonospora cubensis in cucumber at 500 ppm
Podosphaera fuliginea [4] = assay: Antifungal activity against Podosphaera fuliginea in cucumber at 7.8 ppm
[5] = test system: Pseudoperonospora cubensis; assay: Antifungal activity against Pseudoperonospora cubensis in cucumber at 7.8 ppm
Podosphaera fuliginea [6] = assay: Antifungal activity against Podosphaera fuliginea in cucumber at 500 ppm
Podosphaera fuliginea [7] = assay: Antifungal activity against Podosphaera fuliginea in cucumber at 31.3 ppm
[8] = test system: Pseudoperonospora cubensis; assay: Antifungal activity against Pseudoperonospora cubensis in cucumber at 31.3 ppm
Botrytis cinerea [9] = assay: Antifungal activity against Botryotinia fuckeliana in cucumber at 500 ppm
[10] = test system: Pseudoperonospora cubensis; assay: Antifungal activity against Pseudoperonospora cubensis in cucumber at 125 ppm
Podosphaera fuliginea [11] = assay: Antifungal activity against Podosphaera fuliginea in cucumber at 125 ppm
[12] = test system: Pseudoperonospora cubensis; assay: Antifungal activity against Pseudoperonospora cubensis in cucumber at 2 ppm

CO/N=C(\c1ccccc1COc1ccc(Cl)cc1C)c1nccn1C
Activity (Botrytis cinerea [1]): 50%
Activity (Podosphaera fuliginea [2]): 90%
Activity [3]: <50%

CO/N=C(\c1ccccc1/C=N/OC(C)c1ccc(Br)cc1)c1nccn1C (stereo not drawn)
Activity (Podosphaera fuliginea [4]): 90%
Activity [5]: 50%

CO/N=C(\c1ccccc1/C=N/OC(C)c1ccccc1C)c1nccn1C (stereo not drawn)
Activity [3]: <50%
Activity (Podosphaera fuliginea [6]): 90%

CO/N=C(\c1ccccc1/C=N/OC(C)c1cccc(C)c1)c1nccn1C (stereo not drawn)
Activity (Podosphaera fuliginea [7]): 90%
Activity [3]: <50%

CO/N=C(\c1ccccc1/C=N/N=C(/C)c1ccc(Cl)cc1)c1nccn1C
Activity [8]: 50%
Activity (Botrytis cinerea [9]): <50%
Activity (Podosphaera fuliginea [7]): 90%

CO/N=C(\c1ccccc1COc1ncc(Cl)cc1Cl)c1nccn1C
Activity [10]: 50%
Activity (Botrytis cinerea [9]): 50%
Activity (Podosphaera fuliginea [4]): 90%

CO/N=C(\c1ccccc1/C=N/OC(C)c1ccc(Cl)c(Cl)c1)c1nccn1C (stereo not drawn)
Activity (Botrytis cinerea [9]): 50%
Activity (Podosphaera fuliginea [2]): 90%
Activity [5]: 50%

CO/N=C(\c1ccccc1/C=N/N=C(/C)c1ccc(C(F)(F)F)cc1)c1nccn1C
Activity (Botrytis cinerea [9]): <50%
Activity (Podosphaera fuliginea [4]): 90%
Activity [5]: 50%

CO/N=C(\c1ccccc1/C=N/OC(C)c1ccc(Cl)cc1Cl)c1nccn1C (stereo not drawn)
Activity (Podosphaera fuliginea [7]): 90%
Activity [3]: <50%

CCC(O/N=C/c1ccccc1/C(=N\OC)c1nccn1C)c1ccc(Cl)c(Cl)c1 (stereo not drawn)
Activity (Podosphaera fuliginea [7]): 90%
Activity [5]: 50%

CO/N=C(\c1ccccc1/C=N/OC(C)c1cccc(C(F)(F)F)c1)c1nccn1C (stereo not drawn)
Activity (Podosphaera fuliginea [2]): 90%
Activity [3]: 50%

CO/N=C(\c1ccccc1/C=N/OC(C)c1ccccc1C(F)(F)F)c1nccn1C (stereo not drawn)
Activity (Podosphaera fuliginea [11]): 90%
Activity [3]: <50%

CO/N=C(\c1ccccc1/C=N/OC(C)c1ccccc1Cl)c1nccn1C (stereo not drawn)
Activity (Podosphaera fuliginea [11]): 90%
Activity [3]: <50%

CO/N=C(\c1ccccc1COc1ccc(C(F)(F)F)cn1)c1nccn1C
Activity (Botrytis cinerea [9]): 50%
Activity [3]: 50%
Activity (Podosphaera fuliginea [4]): 90%

CO/N=C(\c1ccccc1/C=N/OC(C)c1ccc(OC(F)(F)F)cc1)c1nccn1C (stereo not drawn)
Activity (Podosphaera fuliginea [2]): 90%
Activity [12]: 50%

CO/N=C(\c1ccccc1COc1ccc(Cl)cn1)c1nccn1C
Activity (Botrytis cinerea [9]): 50%
Activity (Podosphaera fuliginea [7]): 90%
Activity [3]: 50%

CO/N=C(\c1ccccc1/C=N/OC(C)c1cccc(Cl)c1)c1nccn1C (stereo not drawn)
Activity (Podosphaera fuliginea [11]): 90%
Activity [3]: <50%

CO/N=C(\c1ccccc1/C=N/OC(C)c1ccc(C)cc1)c1nccn1C (stereo not drawn)
Activity (Podosphaera fuliginea [7]): 90%
Activity [3]: <50%

CO/N=C(\c1ccccc1/C=N/N=C(/C)c1ccc(Cl)c(Cl)c1)c1nccn1C
Activity (Botrytis cinerea [9]): <50%
Activity (Podosphaera fuliginea [4]): 90%
Activity [5]: 50%

CO/N=C(\c1ccccc1/C=N/OC(C)c1ccc(C(F)(F)F)cc1)c1nccn1C (stereo not drawn)
Activity (Botrytis cinerea [9]): <50%
Activity (Podosphaera fuliginea [2]): 90%
Activity [12]: 50%

CO/N=C(\c1ccccc1/C=N/OC(C)c1ccc(OC)cc1)c1nccn1C (stereo not drawn)
Activity (Podosphaera fuliginea [7]): 90%
Activity [3]: <50%

CO/N=C(\c1ccccc1/C=N/OC(C)c1ccccc1)c1nccn1C (stereo not drawn)
Activity (Podosphaera fuliginea [11]): 90%
Activity [3]: <50%

CO/N=C(\c1ccccc1/C=N/OCc1ccc(Cl)cc1)c1nccn1C
Activity [3]: <50%
Activity (Podosphaera fuliginea [4]): 90%

CO/N=C(\c1ccccc1/C=N/OC(C)c1ccc(Cl)cc1)c1nccn1C (stereo not drawn)
Activity (Botrytis cinerea [9]): 50%
Activity (Podosphaera fuliginea [2]): 90%
Activity [5]: 50%
